In ChEMBL document CHEMBL1201862, “PubChem BioAssay data set” (2004):
The source made the active and inactive calls.

How the values were obtained:
P388 = assay: cells; assay type: functional; details: Mus musculus
SN12K1 = assay: cells; assay type: functional; details: Homo sapiens
P388/ADR = assay: cells; assay type: functional; details: Mus musculus
[1] = viability of PTEN-deleted HCT116 cells – cell-based, HCT116 PTEN knockout, dose response (AID 1047); assay type: functional;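 further: HCT116 colon tumor cells with PTEN knocked out; cells exposed to compound for 60 hours before readout; potency for loss of cell viability measured by luminescence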
[2] = biological target: T1, DNA repair protein RAD52 homolog (Homo sapiens, UniProt P43351); assay type: functional, biochemical
T1 sequence (P43351 whole entry): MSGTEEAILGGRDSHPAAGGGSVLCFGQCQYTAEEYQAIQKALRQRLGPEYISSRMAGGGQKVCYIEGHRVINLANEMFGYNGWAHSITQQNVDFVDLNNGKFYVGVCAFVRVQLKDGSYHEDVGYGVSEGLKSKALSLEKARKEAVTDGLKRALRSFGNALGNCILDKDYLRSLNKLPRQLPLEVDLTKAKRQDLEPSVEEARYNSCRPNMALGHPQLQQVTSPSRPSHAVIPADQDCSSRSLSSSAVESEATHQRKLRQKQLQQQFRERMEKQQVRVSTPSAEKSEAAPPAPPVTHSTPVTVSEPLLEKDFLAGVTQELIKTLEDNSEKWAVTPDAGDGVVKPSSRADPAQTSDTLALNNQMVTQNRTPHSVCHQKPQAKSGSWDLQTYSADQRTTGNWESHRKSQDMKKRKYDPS

[3] = viability of HCT116 lacking mutant beta-catenin – cell-based, human colon tumor, dose response (AID 1045); assay type: functional;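 further: HCT116 colon tumor cells with beta catenin knocked out; cells exposed to compound for 60 hours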
[4] = biological target: FAD-linked sulfhydryl oxidase ALR (Homo sapiens, UniProt P55789); assay: ALR-catalysed DTT oxidation blockers – biochemical, H2O2 detection, luminescence, cherry-pick, dose response (AID 493248)
[5] = biological target: T2, Polyadenylate-binding protein 1 (Homo sapiens, UniProt P11940); assay: MLLE binding blockers, Cy5 peptide tracer – biochemical, fluorescence polarization, Cy5-PAM2 peptide, secondary, miRNA deadenylation inhibitor project, dose response (AID 602260); assay type: functional; details: read-out: IC50_Mean
[6] = biological target: T2, Polyadenylate-binding protein 1; assay: MLLE domain peptide-binding blockers, IC50 – biochemical, fluorescence polarization, FITC-PAM2 peptide, dose response (AID 602259); assay type: functional; details: read-out: IC50_Mean
[7] = biological target: DNA dC->dU-editing enzyme APOBEC-3G (Homo sapiens, UniProt Q9HC16); assay: Dose Response confirmation of small molecule APOBEC3G DNA Deaminase Inhibitors via a fluorescence-based single-stranded DNA deaminase assay. [Related pubchem assays (depositor defined):AID493012, AID493028]; assay type: functional
[8] = biological target: DNA dC->dU-editing enzyme APOBEC-3A (Homo sapiens, UniProt P31941); assay: A3A deaminase inhibition for selectivity – biochemical, dose response (AID 504722); assay type: functional
[9] = THP-1 cell cytotoxicity, dose response, cytotoxicity control for non-replicating M. tuberculosis project (AID 489025); assay type: functional
[10] = Vero E6 cell cytotoxicity, dose response, cytotoxicity control for non-replicating M. tuberculosis project, secondary assay (AID 492998); assay type: functional, VeroE6; details: Vero C1008
cells = assay type: functional
[11] = biological target: T3, Ubiquitin-conjugating enzyme E2 N (Homo sapiens, UniProt P61088); assay type: functional;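 further: Dose-response confirmation in a TR-FRET assay detecting UBC13-driven polyubiquitin chain formation, inhibition measured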
T3 sequence (P61088 whole entry): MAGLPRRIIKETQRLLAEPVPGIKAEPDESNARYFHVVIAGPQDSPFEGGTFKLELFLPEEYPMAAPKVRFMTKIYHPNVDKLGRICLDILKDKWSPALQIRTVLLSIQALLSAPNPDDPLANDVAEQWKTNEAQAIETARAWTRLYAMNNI

[12] = blockade of melanocortin 4 receptor signaling – cell-based, plate reader, cherry pick, counter-screen for LGR2 antagonist project, dose response (AID 743444); assay type: functional;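 further: transfected HEK 293 cells stimulated with alpha-MSH peptide; potency of inhibitors of the alpha-MSH evoked signal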
[13] = blockers of bursicon-stimulated LGR2 cAMP reporter – cell-based, HEK293, CRE-luciferase reporter, cherry pick, set 2, dose response (AID 743343); assay type: functional;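 further: transfected cells were stimulated with diluted bursicon conditioned medium after compound addition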
[14] = biological target: T4, Heat shock factor protein 1 (Mus musculus, UniProt P38532); assay: decrease of HSF1-responsive luciferase luminescence – cell-based, NIH3T3, dose retest, confirmation (AID 2382); assay type: functional;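 further: NIH3T3 fibroblasts with HSF1-driven luciferase reporter stressed by proteasome inhibitor MG132; luminescence from HSF1-driven luciferase expression after 8 hours of MG132 stress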
T4 sequence (P38532 whole entry): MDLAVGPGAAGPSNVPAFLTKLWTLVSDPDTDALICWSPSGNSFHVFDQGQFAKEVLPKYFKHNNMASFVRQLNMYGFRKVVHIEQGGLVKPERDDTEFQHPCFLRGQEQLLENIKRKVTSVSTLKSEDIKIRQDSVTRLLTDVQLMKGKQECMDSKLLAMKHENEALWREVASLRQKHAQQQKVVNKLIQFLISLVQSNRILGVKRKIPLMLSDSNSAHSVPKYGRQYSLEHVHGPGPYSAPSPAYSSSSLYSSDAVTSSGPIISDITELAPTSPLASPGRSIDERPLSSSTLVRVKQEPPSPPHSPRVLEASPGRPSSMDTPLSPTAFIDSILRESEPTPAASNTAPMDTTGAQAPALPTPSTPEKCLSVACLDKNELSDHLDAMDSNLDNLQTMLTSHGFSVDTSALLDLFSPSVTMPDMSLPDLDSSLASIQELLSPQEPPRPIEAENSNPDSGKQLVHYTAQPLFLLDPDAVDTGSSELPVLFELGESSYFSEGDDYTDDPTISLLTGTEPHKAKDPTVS

[15] = Luminescence Cell-Based Dose Response HTS to Identify Activators of Luciferase Translation or Activity in H4 […] Cells. [Related pubchem assays: 1829 (Project Summary), 1814 (Primary HTS)]; assay type: functional
[16] = Luminescence Cell-Based Dose Confirmation HTS to Identify Activators of 5'UTR Stem-Loop Driven Alpha-Synuclein mRNA Translation in H4 Neuroglioblastoma Cells. [Related pubchem assays: 1829 (Project Summary), 1814 (Primary HTS)]; assay type: functional
H4 = assay: Luminescence Cell-Based Dose Response HTS to Identify Activators of 5'UTR Stem-Loop Driven Prion Protein mRNA Translation in H4 Neuroglioblastoma Cells. [Related pubchem assays: 1829 (Project Summary), 1814 (Primary HTS)]; assay type: functional; details: Homo sapiens
[17] = microbe, parasite or virus in culture; assay type: functional; details: Mycobacterium tuberculosis
[18] = biological target: T5, Corticotropin-releasing factor receptor 2/Corticotropin-releasing factor-binding protein (Homo sapiens, UniProt P24387+Q13324); assay: Dose Response confirmation of uHTS hits for small molecule antagonists of the CRF-binding protein and CRF-R2 receptor complex.; assay type: functional; details: read-out: IC50_Mean
T5 sequence (Q13324 whole entry): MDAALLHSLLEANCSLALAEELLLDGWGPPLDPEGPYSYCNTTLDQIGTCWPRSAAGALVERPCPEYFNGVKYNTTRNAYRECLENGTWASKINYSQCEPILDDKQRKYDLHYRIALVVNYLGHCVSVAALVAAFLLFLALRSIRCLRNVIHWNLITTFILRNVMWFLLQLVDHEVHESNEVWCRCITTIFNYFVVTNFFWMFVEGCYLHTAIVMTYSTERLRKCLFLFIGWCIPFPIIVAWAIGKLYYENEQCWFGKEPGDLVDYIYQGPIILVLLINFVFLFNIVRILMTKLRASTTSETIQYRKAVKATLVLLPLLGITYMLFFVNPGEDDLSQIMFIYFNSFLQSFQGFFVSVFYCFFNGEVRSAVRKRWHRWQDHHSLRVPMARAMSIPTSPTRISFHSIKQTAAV
T5 sequence (P24387 whole entry): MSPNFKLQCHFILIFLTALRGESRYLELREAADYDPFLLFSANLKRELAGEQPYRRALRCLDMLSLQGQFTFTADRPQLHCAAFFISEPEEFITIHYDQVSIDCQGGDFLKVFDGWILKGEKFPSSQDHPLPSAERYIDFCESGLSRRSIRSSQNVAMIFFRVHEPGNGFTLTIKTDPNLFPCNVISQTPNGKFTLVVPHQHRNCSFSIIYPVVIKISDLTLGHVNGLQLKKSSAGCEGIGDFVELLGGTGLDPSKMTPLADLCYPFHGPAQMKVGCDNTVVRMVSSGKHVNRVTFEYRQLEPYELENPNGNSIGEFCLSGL

[19] = biological target: T5, Corticotropin-releasing factor receptor 2/Corticotropin-releasing factor-binding protein; assay: activators of CRF receptor 2 with binding protein – uHTS hits, confirmation (AID 602473); assay type: functional; details: read-out: EC50_Mean
Large T antigen = Large T antigen (Simian virus 40, UniProt P03070); assay type: functional, Betapolyomavirus macacae;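 further: Confirmatory-stage PubChem screen for compounds that inhibit SV40 T antigen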
[20] = biological target: Glyceraldehyde-3-phosphate dehydrogenase (Homo sapiens, UniProt P04406)
Glyceraldehyde-3-phosphate dehydrogenase, sequence (P04406 whole entry): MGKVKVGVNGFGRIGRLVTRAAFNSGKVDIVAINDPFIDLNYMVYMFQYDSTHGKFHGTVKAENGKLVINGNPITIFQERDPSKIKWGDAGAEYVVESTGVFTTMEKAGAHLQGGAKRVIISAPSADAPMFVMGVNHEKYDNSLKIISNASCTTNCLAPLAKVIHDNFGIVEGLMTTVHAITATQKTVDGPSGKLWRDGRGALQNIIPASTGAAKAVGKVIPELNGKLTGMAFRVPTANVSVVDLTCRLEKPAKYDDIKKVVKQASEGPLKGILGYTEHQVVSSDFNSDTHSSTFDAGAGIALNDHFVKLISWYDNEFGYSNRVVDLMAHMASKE

FAD-linked sulfhydryl oxidase ALR, sequence (P55789 whole entry): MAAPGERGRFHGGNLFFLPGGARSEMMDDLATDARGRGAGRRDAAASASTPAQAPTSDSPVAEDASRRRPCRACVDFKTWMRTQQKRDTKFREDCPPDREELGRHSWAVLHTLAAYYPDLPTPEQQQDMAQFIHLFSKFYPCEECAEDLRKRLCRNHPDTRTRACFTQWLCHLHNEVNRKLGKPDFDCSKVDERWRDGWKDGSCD
T2 sequence (P11940 whole entry, the tested form may be a part): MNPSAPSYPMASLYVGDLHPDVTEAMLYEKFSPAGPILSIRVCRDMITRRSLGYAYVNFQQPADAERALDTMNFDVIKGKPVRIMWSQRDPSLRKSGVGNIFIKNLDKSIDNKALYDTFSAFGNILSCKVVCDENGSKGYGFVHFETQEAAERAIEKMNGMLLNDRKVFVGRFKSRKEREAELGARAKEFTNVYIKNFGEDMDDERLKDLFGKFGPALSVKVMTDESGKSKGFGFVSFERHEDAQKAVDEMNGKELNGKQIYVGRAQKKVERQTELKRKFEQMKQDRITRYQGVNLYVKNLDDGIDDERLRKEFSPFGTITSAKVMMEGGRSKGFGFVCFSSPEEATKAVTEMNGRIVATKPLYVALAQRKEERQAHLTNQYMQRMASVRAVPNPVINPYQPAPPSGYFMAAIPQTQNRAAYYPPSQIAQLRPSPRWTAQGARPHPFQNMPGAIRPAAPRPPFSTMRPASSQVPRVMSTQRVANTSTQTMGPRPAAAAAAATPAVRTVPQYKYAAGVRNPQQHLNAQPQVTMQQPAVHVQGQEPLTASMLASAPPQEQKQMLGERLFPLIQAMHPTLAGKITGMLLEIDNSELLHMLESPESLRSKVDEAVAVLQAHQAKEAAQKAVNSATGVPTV
DNA dC->dU-editing enzyme APOBEC-3A, sequence (P31941 whole entry): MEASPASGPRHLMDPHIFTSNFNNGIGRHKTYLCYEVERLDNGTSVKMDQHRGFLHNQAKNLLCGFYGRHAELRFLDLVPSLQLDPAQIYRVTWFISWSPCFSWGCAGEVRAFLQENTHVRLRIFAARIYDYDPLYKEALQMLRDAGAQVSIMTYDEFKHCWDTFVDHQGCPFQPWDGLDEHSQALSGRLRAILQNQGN
DNA dC->dU-editing enzyme APOBEC-3G, sequence (Q9HC16 whole entry): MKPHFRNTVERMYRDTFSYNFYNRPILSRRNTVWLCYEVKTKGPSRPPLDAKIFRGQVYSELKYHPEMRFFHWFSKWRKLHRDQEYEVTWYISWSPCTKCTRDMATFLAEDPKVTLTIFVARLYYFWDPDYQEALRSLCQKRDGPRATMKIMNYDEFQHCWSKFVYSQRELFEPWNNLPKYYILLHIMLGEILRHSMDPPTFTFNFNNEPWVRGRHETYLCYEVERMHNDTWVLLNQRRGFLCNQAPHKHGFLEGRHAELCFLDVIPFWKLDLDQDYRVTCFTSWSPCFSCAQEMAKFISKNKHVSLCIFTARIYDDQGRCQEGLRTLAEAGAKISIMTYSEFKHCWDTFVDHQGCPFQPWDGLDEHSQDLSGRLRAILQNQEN
Large T antigen, sequence (P03070 whole entry): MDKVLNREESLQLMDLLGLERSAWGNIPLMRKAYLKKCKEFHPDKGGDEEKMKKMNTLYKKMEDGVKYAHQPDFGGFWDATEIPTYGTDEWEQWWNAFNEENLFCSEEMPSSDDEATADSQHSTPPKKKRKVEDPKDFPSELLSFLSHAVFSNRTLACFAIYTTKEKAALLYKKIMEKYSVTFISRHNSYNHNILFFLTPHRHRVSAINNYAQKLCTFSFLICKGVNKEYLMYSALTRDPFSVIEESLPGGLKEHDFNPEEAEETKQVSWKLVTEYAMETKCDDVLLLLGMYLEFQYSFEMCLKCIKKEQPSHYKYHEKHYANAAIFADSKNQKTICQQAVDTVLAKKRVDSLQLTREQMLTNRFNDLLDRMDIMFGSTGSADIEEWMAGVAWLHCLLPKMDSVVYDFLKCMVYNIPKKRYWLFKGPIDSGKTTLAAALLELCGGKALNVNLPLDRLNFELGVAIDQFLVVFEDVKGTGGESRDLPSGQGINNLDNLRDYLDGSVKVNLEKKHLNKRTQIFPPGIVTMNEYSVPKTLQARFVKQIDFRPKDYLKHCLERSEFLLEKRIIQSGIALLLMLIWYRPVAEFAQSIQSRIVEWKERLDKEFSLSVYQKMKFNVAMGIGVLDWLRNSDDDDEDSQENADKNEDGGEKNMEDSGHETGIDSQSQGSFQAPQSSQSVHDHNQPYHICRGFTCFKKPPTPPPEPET

O=NN(CCCl)C(=O)NC1CCC(=O)NC1=O (configuration not stated)
GI50 (P388): 17.8 µM (inactive) | GI50 (SN12K1): 107 µM (inactive) | GI50 (P388/ADR): 23.4 µM (inactive)

CN(C)CCN(C)Cc1ccccc1Sc1cccc2ccccc12
EC50 [1]: 12.8 µM (active) | AC50 [2]: 11.2 µM (active) | EC50 [3]: 10.6 µM (active)

Nc1ccc(-c2nc3cc(N)ccc3s2)cc1
AC50 [4]: 1.43 µM (active)

COc1ccc2c(c1)CCN1C2CCN2C(=O)CCC21 (configuration not stated)
IC50 [5]: > 66 µM (inactive) | IC50 [6]: > 66 µM (inactive)

Clc1nnc(N2CCCCC2)c2ccccc12
AC50 [4]: 17.1 µM (active)

CC(=O)NCCCc1c[nH]c2ccc(Cl)cc12
AC50 [4]: 13.5 µM (active)

CCn1c(CSc2nc3ccccc3[nH]2)n[nH]c1=S
IC50 [7]: 5.44 µM (active) | IC50 [8]: > 100 µM (inactive)

CN(C)CCCNc1nc2sc3c(c2c(=O)n1CCc1ccccc1)CCCCC3
CC50 [9]: 19.5 µM (active) | CC50 [10]: 14.4 µM (active) | IC50 (cells): 23.3 µM (active) | IC50 [11]: > 20 µM (inactive)

CC(C)(C)c1ccc(C(=O)NCCOc2ccccc2F)cc1
AC50 [12]: 4.25 µM (active) | AC50 [13]: 5.41 µM (active) | EC50 [14]: < 0.16 µM (active)

C[C@@H]1[C@@H](Sc2ccccc2)CC(=O)O[C@@H]1c1ccc(-c2ccccc2)cc1
IC50 [5]: > 66 µM (inactive) | IC50 [6]: > 66 µM (inactive) | EC50 [15]: > 120 µM (not active) | EC50 [16]: > 120 µM (not active) | EC50 (H4): > 120 µM (not active)

N#Cc1cc2cc3c(cc2nc1NCCNC(=S)NCCCN1CCOCC1)OCO3
AC50 [2]: 14.1 µM (active)

FC(F)(F)c1cccc(NC(S)=Nc2cccc(N=C(S)Nc3cccc(C(F)(F)F)c3)n2)c1
IC50 [5]: > 66 µM (inactive) | IC50 [6]: > 66 µM (inactive)

COC1C(C)OC(OC2CC(C)(O)Cc3cc4c(c(O)c32)C(=O)c2c(O)cc3c(c2C4=O)OC2OC3(C)C(O)C(N(C)C)C2O)C(OC)C1(C)OC (configuration not stated)
GI50 (P388): 0.0228 µM (active) | GI50 (SN12K1): 0.0168 µM (active) | GI50 (P388/ADR): 0.5 µM (active)

CCCCCn1c(=O)c2ccccc2n2c(CCl)nnc12
CC50 [9]: 19.2 µM (active) | CC50 [10]: > 20 µM (active) | IC50 (cells): 0.67 µM (active) | CC50 [17]: 11.7 µM (active)

CN(C)c1ccc(NC(=O)COC(=O)Cn2nnc3ccccc32)cc1
IC50 [18]: > 47.1 µM (inactive) | EC50 [19]: > 53 µM (inactive) | IC50 (Large T antigen): 6.63 µM (active)

O=C(c1cc(-c2ccc(Cl)cc2Cl)on1)N1CCCC1
AC50 [12]: 5.47 µM (active) | AC50 [13]: 5.36 µM (active)

COc1cccc(/C=C2\SC(N3CCCC(C)C3)=NC2=O)c1OC (configuration not stated)
AC50 [4]: 5.2 µM (active)

COc1ccc(N)cc1NC(=O)CN1CCCC1
AC50 [4]: 7.58 µM (active) | AC50 [2]: 9.95 µM (active)

COc1ccc(N=C(S)NC23CN4CN(CN(C4)C2)C3)c(OC)c1
AC50 [2]: 16.3 µM (active)

C[C@H]1CC[C@H](NC(=O)N(CCCl)N=O)CC1
GI50 (P388): 9.53 µM (inactive) | GI50 (SN12K1): 26 µM (inactive) | GI50 (P388/ADR): 9.73 µM (inactive)

Cc1nnc(S)n1/N=C/c1ccc(-c2ccccc2[N+](=O)[O-])o1
IC50 [7]: 4.2 µM (active) | IC50 [8]: > 100 µM (inactive)

COc1cc[n+](C)cc1
GI50 (P388): > 100 µM (inactive) | GI50 (SN12K1): > 100 µM (inactive) | GI50 (P388/ADR): > 100 µM (inactive)

COc1cc(-c2ccc(/N=N/c3c(S(=O)(=O)O)cc4cc(S(=O)(=O)O)cc(N)c4c3O)c(OC)c2)ccc1/N=N/c1c(S(=O)(=O)O)cc2cc(S(=O)(=O)O)cc(N)c2c1O
GI50 (P388): > 100 µM (inactive) | GI50 (SN12K1): > 100 µM (inactive)

COc1cccc(/C=N/c2ccc(N3CCOCC3)cc2)c1O
IC50 (Large T antigen): 4.14 µM (active)

CCC[S+]([O-])c1nc(COC(=O)NC)c(COC(=O)NC)n1C (configuration not stated)
GI50 (P388): > 100 µM (inactive) | GI50 (SN12K1): > 100 µM (inactive) | GI50 (P388/ADR): > 100 µM (inactive)

O=C(c1cc(-c2ccc(Cl)cc2Cl)n[nH]1)N(CCO)CCO
IC50 [20]: > 10 µM (inconclusive)

S=P(N1CC1)(N1CC1)N1CC1 [THIOTEPA]
GI50 (P388): 6.93 µM (inactive) | GI50 (SN12K1): > 89.1 µM (inactive) | GI50 (P388/ADR): 7.41 µM (inactive)
